Columns and labels:
[1] = target: T1, CK1α (Homo sapiens, UniProt P48729+Q96SW2); test: Western blot, degradation of substrate protein in hPBMCs; assay type: cell-based
T1 construct: effects of the compounds of the present disclosure on the expression of target proteins in cells; endogenous in cells; host or cells: human PBMCs (Milecell Biotechnologies)

[2] = target: T2, IKZF2 (Homo sapiens, UniProt Q96SW2+Q9UKS7); test: as above; assay type: cell-based
T2 construct: effects of the compounds of the present disclosure on the expression of target proteins in cells; endogenous in cells; host or cells: human PBMCs (Milecell Biotechnologies)
T2 sequence (Q9UKS7 whole entry): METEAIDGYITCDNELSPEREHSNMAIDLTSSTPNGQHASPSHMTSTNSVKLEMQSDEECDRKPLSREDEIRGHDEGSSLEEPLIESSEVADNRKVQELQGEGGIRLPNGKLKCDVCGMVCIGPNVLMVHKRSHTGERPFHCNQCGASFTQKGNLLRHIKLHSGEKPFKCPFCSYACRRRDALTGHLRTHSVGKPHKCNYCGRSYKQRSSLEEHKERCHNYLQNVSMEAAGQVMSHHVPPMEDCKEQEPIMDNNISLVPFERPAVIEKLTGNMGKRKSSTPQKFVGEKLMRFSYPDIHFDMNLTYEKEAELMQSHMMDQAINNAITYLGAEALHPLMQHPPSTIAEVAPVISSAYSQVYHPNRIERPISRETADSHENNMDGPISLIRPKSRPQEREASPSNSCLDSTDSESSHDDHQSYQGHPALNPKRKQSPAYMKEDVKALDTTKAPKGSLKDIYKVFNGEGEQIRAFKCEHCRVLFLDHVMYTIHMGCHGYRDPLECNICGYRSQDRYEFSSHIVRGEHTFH
T2 sequence (Q96SW2 whole entry): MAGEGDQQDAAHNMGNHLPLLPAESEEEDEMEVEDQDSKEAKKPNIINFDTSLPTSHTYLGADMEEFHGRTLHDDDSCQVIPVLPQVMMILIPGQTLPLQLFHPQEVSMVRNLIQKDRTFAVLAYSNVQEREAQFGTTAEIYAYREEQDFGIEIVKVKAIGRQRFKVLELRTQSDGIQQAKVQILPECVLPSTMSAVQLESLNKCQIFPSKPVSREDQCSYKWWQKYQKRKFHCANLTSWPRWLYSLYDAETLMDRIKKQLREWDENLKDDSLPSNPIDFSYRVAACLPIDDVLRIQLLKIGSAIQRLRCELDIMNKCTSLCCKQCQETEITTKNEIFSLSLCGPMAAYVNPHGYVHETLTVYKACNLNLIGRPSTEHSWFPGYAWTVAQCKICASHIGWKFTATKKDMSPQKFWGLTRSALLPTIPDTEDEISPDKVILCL
T2 sequence (Q16531 whole entry partner): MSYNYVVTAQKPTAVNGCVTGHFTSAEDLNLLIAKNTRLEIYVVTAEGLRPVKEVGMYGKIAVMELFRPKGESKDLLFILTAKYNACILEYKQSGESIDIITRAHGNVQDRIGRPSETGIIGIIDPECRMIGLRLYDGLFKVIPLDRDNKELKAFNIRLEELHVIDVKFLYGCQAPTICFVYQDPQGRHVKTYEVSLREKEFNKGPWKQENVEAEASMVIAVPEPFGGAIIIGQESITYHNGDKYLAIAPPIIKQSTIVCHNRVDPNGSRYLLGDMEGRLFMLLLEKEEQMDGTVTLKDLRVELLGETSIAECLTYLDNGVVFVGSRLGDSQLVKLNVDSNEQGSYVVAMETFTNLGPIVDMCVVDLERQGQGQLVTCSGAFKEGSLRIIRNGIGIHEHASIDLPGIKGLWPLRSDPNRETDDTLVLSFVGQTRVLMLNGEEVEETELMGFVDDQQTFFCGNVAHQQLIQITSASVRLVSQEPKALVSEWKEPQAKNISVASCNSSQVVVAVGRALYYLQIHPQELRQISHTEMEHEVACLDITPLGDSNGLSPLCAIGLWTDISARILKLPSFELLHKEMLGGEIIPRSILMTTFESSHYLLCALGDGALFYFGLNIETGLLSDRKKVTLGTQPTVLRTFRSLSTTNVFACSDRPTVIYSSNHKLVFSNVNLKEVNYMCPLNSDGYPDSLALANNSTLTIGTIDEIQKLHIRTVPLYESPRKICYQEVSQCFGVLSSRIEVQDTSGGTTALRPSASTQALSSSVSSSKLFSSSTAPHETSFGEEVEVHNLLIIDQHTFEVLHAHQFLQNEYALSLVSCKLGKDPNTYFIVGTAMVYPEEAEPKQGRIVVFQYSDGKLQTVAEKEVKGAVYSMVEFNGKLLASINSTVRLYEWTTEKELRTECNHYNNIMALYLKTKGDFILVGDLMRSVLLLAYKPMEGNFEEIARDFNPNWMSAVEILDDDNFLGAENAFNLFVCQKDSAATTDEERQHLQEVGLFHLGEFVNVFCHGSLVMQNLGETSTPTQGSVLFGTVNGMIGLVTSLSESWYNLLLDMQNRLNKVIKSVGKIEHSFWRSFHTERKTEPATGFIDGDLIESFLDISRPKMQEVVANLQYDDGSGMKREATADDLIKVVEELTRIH

[3] = target: T3, IKZF3 (Homo sapiens, UniProt Q96SW2+Q9UKT9); test: as above; assay type: cell-based
T3 construct: effects of the compounds of the present disclosure on the expression of target proteins in cells; endogenous in cells; host or cells: human PBMCs (Milecell Biotechnologies)
T3 sequence (Q9UKT9 whole entry): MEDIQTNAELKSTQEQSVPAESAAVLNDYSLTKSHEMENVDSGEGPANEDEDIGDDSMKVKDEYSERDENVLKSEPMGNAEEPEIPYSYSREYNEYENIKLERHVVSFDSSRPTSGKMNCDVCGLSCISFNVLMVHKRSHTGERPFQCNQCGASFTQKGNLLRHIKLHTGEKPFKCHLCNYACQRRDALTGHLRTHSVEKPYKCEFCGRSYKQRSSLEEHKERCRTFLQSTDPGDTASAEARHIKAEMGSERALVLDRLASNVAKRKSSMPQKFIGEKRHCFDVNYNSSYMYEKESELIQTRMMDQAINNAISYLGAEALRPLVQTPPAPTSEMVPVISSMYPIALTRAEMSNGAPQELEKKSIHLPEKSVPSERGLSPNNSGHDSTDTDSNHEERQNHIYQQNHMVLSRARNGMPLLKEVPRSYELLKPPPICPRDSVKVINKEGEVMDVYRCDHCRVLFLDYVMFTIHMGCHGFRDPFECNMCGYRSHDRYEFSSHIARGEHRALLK
T3 sequence (Q96SW2 whole entry): as the sequence (Q96SW2 whole entry) above
T3 sequence (Q16531 whole entry partner): as the sequence (Q16531 whole entry partner) above

[4] = target: T4, WEE1 (Homo sapiens, UniProt P30291+Q96SW2); test: as above; assay type: cell-based
T4 construct: effects of the compounds of the present disclosure on the expression of target proteins in cells; endogenous in cells; host or cells: human PBMCs (Milecell Biotechnologies)
T4 sequence (P30291 whole entry): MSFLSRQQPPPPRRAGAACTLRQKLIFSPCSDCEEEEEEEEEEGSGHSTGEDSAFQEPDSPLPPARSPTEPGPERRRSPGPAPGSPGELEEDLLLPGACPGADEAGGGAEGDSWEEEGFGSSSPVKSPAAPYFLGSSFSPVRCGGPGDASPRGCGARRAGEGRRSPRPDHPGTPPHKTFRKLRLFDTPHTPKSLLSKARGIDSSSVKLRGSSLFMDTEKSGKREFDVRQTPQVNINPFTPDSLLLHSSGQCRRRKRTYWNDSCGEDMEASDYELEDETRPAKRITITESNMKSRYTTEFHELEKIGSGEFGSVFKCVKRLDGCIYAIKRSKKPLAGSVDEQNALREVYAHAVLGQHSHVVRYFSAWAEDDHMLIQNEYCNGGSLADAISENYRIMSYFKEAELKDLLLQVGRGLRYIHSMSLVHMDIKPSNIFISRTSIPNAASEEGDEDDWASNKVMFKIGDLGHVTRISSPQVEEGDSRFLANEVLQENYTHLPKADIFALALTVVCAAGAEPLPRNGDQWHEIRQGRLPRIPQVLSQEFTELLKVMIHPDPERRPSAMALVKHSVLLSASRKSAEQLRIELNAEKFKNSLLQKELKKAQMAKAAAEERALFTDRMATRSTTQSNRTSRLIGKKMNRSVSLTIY
T4 sequence (Q96SW2 whole entry): as the sequence (Q96SW2 whole entry) above
T4 sequence (Q16531 whole entry partner): as the sequence (Q16531 whole entry partner) above

[5] = target: T5, IKZF1 (Homo sapiens, UniProt Q13422+Q96SW2); test: as above; assay type: cell-based
T5 construct: effects of the compounds of the present disclosure on the expression of target proteins in cells; endogenous in cells; host or cells: human PBMCs (Milecell Biotechnologies)
T5 sequence (Q13422 whole entry): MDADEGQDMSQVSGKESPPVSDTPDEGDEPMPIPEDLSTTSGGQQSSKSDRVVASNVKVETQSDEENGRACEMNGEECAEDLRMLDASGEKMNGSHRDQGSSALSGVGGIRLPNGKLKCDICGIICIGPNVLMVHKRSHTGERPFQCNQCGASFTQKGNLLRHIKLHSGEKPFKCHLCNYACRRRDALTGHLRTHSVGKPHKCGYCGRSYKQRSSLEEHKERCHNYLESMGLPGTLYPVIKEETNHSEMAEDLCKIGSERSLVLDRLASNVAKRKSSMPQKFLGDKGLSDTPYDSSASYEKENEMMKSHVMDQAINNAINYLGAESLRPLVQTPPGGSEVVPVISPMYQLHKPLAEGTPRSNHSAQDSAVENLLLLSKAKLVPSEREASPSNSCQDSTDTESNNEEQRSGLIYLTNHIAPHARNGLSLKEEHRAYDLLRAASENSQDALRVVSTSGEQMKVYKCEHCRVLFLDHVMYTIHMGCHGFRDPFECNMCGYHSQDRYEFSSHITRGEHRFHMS
T5 sequence (Q96SW2 whole entry): as the sequence (Q96SW2 whole entry) above
T5 sequence (Q16531 whole entry partner): as the sequence (Q16531 whole entry partner) above

[6] = tested on: GSPT1; test: as above; assay type: cell-based, Human
[7] = target: T6, human Cereblon WT GST-tagged protein (Homo sapiens, UniProt Q96SW2); test: CRBN-binding affinity, HTRF (CEREBLON BINDING kit); details: for inhibition at 0.5 µM: read-out: Inhibition Rate at 0.5 µM (%); for inhibition at 2 µM: read-out: Inhibition Rate at 2 µM (%)
T6 construct: purchased CISBIO 64BDCRBNPEH
T6 sequence (Q96SW2 whole entry): as the sequence (Q96SW2 whole entry) above

[8] = 24 hours treatment, compounds at 50 nM and 500 nM (concentration behind the class not stated)
[9] = Western blot, 24 hours of compound treatment, compounds tested at 50 nM and 500 nM (concentration for the table not stated)

T1 sequence (P48729 whole entry): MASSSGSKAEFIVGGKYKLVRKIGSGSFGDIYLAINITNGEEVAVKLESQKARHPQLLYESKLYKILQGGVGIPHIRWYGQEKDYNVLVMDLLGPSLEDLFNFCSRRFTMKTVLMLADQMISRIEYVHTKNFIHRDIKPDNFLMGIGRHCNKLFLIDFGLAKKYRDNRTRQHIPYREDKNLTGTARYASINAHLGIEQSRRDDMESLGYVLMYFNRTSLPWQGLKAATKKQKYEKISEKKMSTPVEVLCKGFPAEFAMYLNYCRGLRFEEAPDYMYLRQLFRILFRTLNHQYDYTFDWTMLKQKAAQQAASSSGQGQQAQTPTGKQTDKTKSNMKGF
T1 sequence (Q96SW2 whole entry): as the sequence (Q96SW2 whole entry) above
T1 sequence (Q16531 whole entry partner): as the sequence (Q16531 whole entry partner) above

## O=C1CCC(N2Cc3c(CN4CCN(c5ncnc6sccc56)CC4)cccc3C2=S)C(=O)N1 (centres unmarked) [GT-08912, 3-(4-((4-(thieno[2,3-d]pyrimidin-4-yl)piperazin-1-yl)methyl)-1-thioxoisoindolin-2-yl)piperidine-2,6-dione]
[1]; [8]
  CK1α substrate protein remaining %: B (80%< substrate protein remaining %≤ 100%)
[2]; [8]
  IKZF2 substrate protein remaining %: B (80%< substrate protein remaining %≤ 100%)
[3]; [8]
  IKZF3 substrate protein remaining %: B (80%< substrate protein remaining %≤ 100%)
[4]; [8]
  Wee1 substrate protein remaining %: A (0% ≤ substrate protein remaining % ≤ 80%)
[5]; [8]
  IKZF 1 substrate protein remaining %: B (80%< substrate protein remaining %≤ 100%)
[6]; [8]
  GSPT1 substrate protein remaining %: B (80%< substrate protein remaining %≤ 100%)
[7]
  inhibition at 0.5 µM: 60 to 80%
  inhibition at 2 µM: 80 to 100%

## O=C1CCC(N2Cc3cc(CN4CCN(c5nc(Cl)nc6c5SCC6)CC4)ccc3C2=S)C(=O)N1 (centres unmarked) [GT-09328, 3-(5-((4-(2-chloro-6,7-dihydrothieno[3,2-d]pyrimidin-4-yl)piperazin-1-yl)methyl)-1-thioxoisoindolin-2-yl)piperidine-2,6-dione]
[1]; [8]
  CK1α substrate protein remaining %: B (80%< substrate protein remaining %≤ 100%)
[2]; [8]
  IKZF2 substrate protein remaining %: A (0% ≤ substrate protein remaining % ≤ 80%)
[3]; [8]
  IKZF3 substrate protein remaining %: B (80%< substrate protein remaining %≤ 100%)
[4]; [8]
  Wee1 substrate protein remaining %: B (80%< substrate protein remaining %≤ 100%)
[5]; [8]
  IKZF 1 substrate protein remaining %: B (80%< substrate protein remaining %≤ 100%)
[6]; [8]
  GSPT1 substrate protein remaining %: B (80%< substrate protein remaining %≤ 100%)
[7]
  inhibition at 0.5 µM: 53 to 60%
  inhibition at 2 µM: 80 to 100%

## O=C1CCC(N2Cc3c(CN4CCN(c5ccnc(Br)c5F)CC4)cccc3C2=S)C(=O)N1 (centres unmarked) [GT-08733, 3-(4-((4-(2-bromo-3-fluoropyridin-4-yl)piperazin-1-yl)methyl)-1-thioxoisoindolin-2-yl)piperidine-2,6-dione]
[1]; [9]
  CK1α substrate protein remaining %: B (80%< substrate protein remaining %≤ 100%)
[2]; [9]
  IKZF2 substrate protein remaining %: B (80%< substrate protein remaining %≤ 100%)
[3]; [9]
  IKZF3 substrate protein remaining %: B (80%< substrate protein remaining %≤ 100%)
[4]; [9]
  Wee1 substrate protein remaining %: A (0% ≤ substrate protein remaining % ≤ 80%)
[5]; [9]
  IKZF 1 substrate protein remaining %: B (80%< substrate protein remaining %≤ 100%)
[6]; [9]
  GSPT1 substrate protein remaining %: A (0% ≤ substrate protein remaining % ≤ 80%)
[7]
  inhibition at 0.5 µM: 60 to 80%
  inhibition at 2 µM: 80 to 100%

## O=C1CCC(N2Cc3c(CN4CCC(c5cccc(Cl)c5Cl)CC4)cccc3C2=S)C(=O)N1 (centres unmarked) [GT-08269, 3-(4-((4-(2,3-dichlorophenyl)piperidin-1-yl)methyl)-1-thioxoisoindolin-2-yl)piperidine-2,6-dione]
[1]; [9]
  CK1α substrate protein remaining %: B (80%< substrate protein remaining %≤ 100%)
[2]; [9]
  IKZF2 substrate protein remaining %: B (80%< substrate protein remaining %≤ 100%)
[3]; [9]
  IKZF3 substrate protein remaining %: B (80%< substrate protein remaining %≤ 100%)
[4]; [9]
  Wee1 substrate protein remaining %: A (0% ≤ substrate protein remaining % ≤ 80%)
[5]; [9]
  IKZF 1 substrate protein remaining %: B (80%< substrate protein remaining %≤ 100%)
[6]; [9]
  GSPT1 substrate protein remaining %: A (0% ≤ substrate protein remaining % ≤ 80%)
[7]
  inhibition at 0.5 µM: 30 to 40%
  inhibition at 2 µM: 53 to 60%

## O=C1CCC(N2Cc3c(CN4CC=C(c5ccoc5)CC4)cccc3C2=S)C(=O)N1 (centres unmarked) [GT-08319, 3-(4-((4-(furan-3-yl)-3,6-dihydropyridin-1 (2H)-yl)methyl)-1-thioxoisoindolin-2-yl)piperidine-2,6-dione]
[1]; [8]
  CK1α substrate protein remaining %: B (80%< substrate protein remaining %≤ 100%)
[2]; [8]
  IKZF2 substrate protein remaining %: B (80%< substrate protein remaining %≤ 100%)
[3]; [8]
  IKZF3 substrate protein remaining %: A (0% ≤ substrate protein remaining % ≤ 80%)
[4]; [8]
  Wee1 substrate protein remaining %: A (0% ≤ substrate protein remaining % ≤ 80%)
[5]; [8]
  IKZF 1 substrate protein remaining %: B (80%< substrate protein remaining %≤ 100%)
[6]; [8]
  GSPT1 substrate protein remaining %: B (80%< substrate protein remaining %≤ 100%)
[7]
  inhibition at 0.5 µM: 40 to 53%
  inhibition at 2 µM: 80 to 100%

## O=C1CCC(N2Cc3cc(CN4CCN(c5ccc(Cl)nc5)CC4)ccc3C2=S)C(=O)N1 (centres unmarked) [GT-09230, 3-(5-((4-(6-chloropyridin-3-yl)piperazin-1-yl)methyl)-1-thioxoisoindolin-2-yl)piperidine-2,6-dione]
[1]; [9]
  CK1α substrate protein remaining %: A (0% ≤ substrate protein remaining % ≤ 80%)
[2]; [9]
  IKZF2 substrate protein remaining %: B (80%< substrate protein remaining %≤ 100%)
[3]; [9]
  IKZF3 substrate protein remaining %: B (80%< substrate protein remaining %≤ 100%)
[4]; [9]
  Wee1 substrate protein remaining %: B (80%< substrate protein remaining %≤ 100%)
[5]; [9]
  IKZF 1 substrate protein remaining %: B (80%< substrate protein remaining %≤ 100%)
[6]; [9]
  GSPT1 substrate protein remaining %: A (0% ≤ substrate protein remaining % ≤ 80%)
[7]
  inhibition at 0.5 µM: 60 to 80%
  inhibition at 2 µM: 80 to 100%

## Cc1ccc(C2=CCN(Cc3cccc4c3CN(C3CCC(=O)NC3=O)C4=S)CC2)s1 (centres unmarked) [GT-08307, 3-(4-((4-(5-methylthiophen-2-yl)-3,6-dihydropyridin-1(2H)-yl)methyl)-1-thioxoisoindolin-2-yl)piperidine-2,6-dione]
[1]; [8]
  CK1α substrate protein remaining %: B (80%< substrate protein remaining %≤ 100%)
[2]; [8]
  IKZF2 substrate protein remaining %: B (80%< substrate protein remaining %≤ 100%)
[3]; [8]
  IKZF3 substrate protein remaining %: B (80%< substrate protein remaining %≤ 100%)
[4]; [8]
  Wee1 substrate protein remaining %: A (0% ≤ substrate protein remaining % ≤ 80%)
[5]; [8]
  IKZF 1 substrate protein remaining %: B (80%< substrate protein remaining %≤ 100%)
[6]; [8]
  GSPT1 substrate protein remaining %: B (80%< substrate protein remaining %≤ 100%)
[7]
  inhibition at 0.5 µM: 53 to 60%
  inhibition at 2 µM: 80 to 100%

## CC1(C)CCC(CN2C3CC2CN(Cc2cccc4c2CN(C2CCC(=O)NC2=O)C4=S)C3)=C(c2ccc(Cl)cc2)C1 (centres unmarked) [GT-08271, 3-(4-((6-((4'-chloro-5,5-dimethyl-3,4,5,6-tetrahydro-[1,1'-biphenyl]-2-yl)methyl)-3,6-diazabicyclo[3.1.1]heptan-3-yl)methyl)-1-thioxoisoindolin-2-yl)piperidine-2,6-dione]
[1]; [9]
  CK1α substrate protein remaining %: A (0% ≤ substrate protein remaining % ≤ 80%)
[2]; [9]
  IKZF2 substrate protein remaining %: B (80%< substrate protein remaining %≤ 100%)
[3]; [9]
  IKZF3 substrate protein remaining %: B (80%< substrate protein remaining %≤ 100%)
[4]; [9]
  Wee1 substrate protein remaining %: A (0% ≤ substrate protein remaining % ≤ 80%)
[5]; [9]
  IKZF 1 substrate protein remaining %: B (80%< substrate protein remaining %≤ 100%)
[6]; [9]
  GSPT1 substrate protein remaining %: A (0% ≤ substrate protein remaining % ≤ 80%)
[7]
  inhibition at 0.5 µM: 30 to 40%
  inhibition at 2 µM: 60 to 80%

## Cc1nc(C2CCN(Cc3cccc4c3CN(C3CCC(=O)NC3=O)C4=S)CC2)c2c3c(sc2n1)CCCC3 (centres unmarked) [GT-08933, 3-(4-((4-(2-methyl-5,6,7,8-tetrahydrobenzo[4,5]thieno[2,3-d]pyrimidin-4-yl)piperidin-1-yl)methyl)-1-thioxoisoindolin-2-yl)piperidine-2,6-dione]
[1]; [8]
  CK1α substrate protein remaining %: B (80%< substrate protein remaining %≤ 100%)
[2]; [8]
  IKZF2 substrate protein remaining %: B (80%< substrate protein remaining %≤ 100%)
[3]; [8]
  IKZF3 substrate protein remaining %: B (80%< substrate protein remaining %≤ 100%)
[4]; [8]
  Wee1 substrate protein remaining %: A (0% ≤ substrate protein remaining % ≤ 80%)
[5]; [8]
  IKZF 1 substrate protein remaining %: A (0% ≤ substrate protein remaining % ≤ 80%)
[6]; [8]
  GSPT1 substrate protein remaining %: A (0% ≤ substrate protein remaining % ≤ 80%)
[7]
  inhibition at 0.5 µM: 53 to 60%
  inhibition at 2 µM: 60 to 80%

## Cc1nc(C2CCN(Cc3ccc4c(c3)CN(C3CCC(=O)NC3=O)C4=S)CC2)c2c3c(sc2n1)CCC3 (centres unmarked) [GT-09312, 3-(5-((4-(2-methyl-6,7-dihydro-5H-cyclopenta[4,5]thieno[2,3-d]pyrimidin-4-yl)piperidin-1-yl)methyl)-1-thioxoisoindolin-2-yl)piperidine-2,6-dione]
[1]; [8]
  CK1α substrate protein remaining %: B (80%< substrate protein remaining %≤ 100%)
[2]; [8]
  IKZF2 substrate protein remaining %: B (80%< substrate protein remaining %≤ 100%)
[3]; [8]
  IKZF3 substrate protein remaining %: A (0% ≤ substrate protein remaining % ≤ 80%)
[4]; [8]
  Wee1 substrate protein remaining %: B (80%< substrate protein remaining %≤ 100%)
[5]; [8]
  IKZF 1 substrate protein remaining %: B (80%< substrate protein remaining %≤ 100%)
[6]; [8]
  GSPT1 substrate protein remaining %: A (0% ≤ substrate protein remaining % ≤ 80%)
[7]
  inhibition at 0.5 µM: 60 to 80%
  inhibition at 2 µM: 80 to 100%
